Key:
Plasmopara viticola = experiment: Test Example G: Downy mildew on vine; settings: 250 ppm drug solution sprayed (2.5 ml/pot), grape Neomuscat, 7 to 10 days after inoculation
Description: Seeds of a test plant (grape variety: Neomuscat) were planted and cultivated until three to four first leaves appeared. In the test, the inventive compounds were dissolved into dimethyl sulfoxide-methanol mixture solution (volume ratio: 9/1), and the resultant solutions were diluted with well water to a concentration of 250 ppm to obtain the drug solutions. The drug solutions were sprayed to the test plant (2.5 ml/pot). After the drug solutions dried, a zoosporangia suspension (1-2×10^4 zoosporangia/ml) of Plasmopara viticola was inoculated to the plant by spraying. After the inoculation, the plant was kept in a mist chamber at room temperature of 20° C. for about 24 hours to promote the onset of disease. The degrees of disease development were investigated 7 to 10 days after the inoculation, and the effectiveness of the drug solutions was evaluated.
In Test Examples described above, the degrees of disease development were evaluated in increments of 0.05 from 0 (as no incidence of disease) to 3 (as the degree of disease development in an untreated plant group). Further, control values were calculated using the following equation based on the degree of disease development.
n=Degree of disease development in each treated group

Alternaia brassicicola = experiment: Test Example C: Alternaria sooty spot on cabbage; format: in vivo; settings: 250 ppm drug solution sprayed on test plant
Description: Seeds of a test plant (cabbage variety: Shikidori) were planted and cultivated until the cotyledons extended.
<Control Value> Control value=100{1−(n/3)}

Phytophthora infestans = experiment: whole plant or invertebrate; format: in vivo; settings: 250 ppm drug solution sprayed on test plant
Magnaporthe grisea = experiment: whole plant or invertebrate; format: in vivo; settings: 250 ppm drug solution sprayed on test plant
[1] = test system: Colletotrichum orbiculare; experiment: Test Example H: Anthracnose on cucumber; settings: 250 ppm drug solution sprayed (2.5 ml/pot), cucumber Sagami Hanjiro, 6 to 10 days after inoculation
Botrytis cinerea = experiment: Test Example B: Gray mold on tomato; settings: 250 ppm drug solution sprayed on test plant
Puccinia recondita = experiment: Test Example E: Brown rust on wheat; format: in vivo; settings: 250 ppm drug solution sprayed on test plant
[2] = test system: Blumeria graminis f. sp. hordei; experiment: Test Example D: Powdery mildew on barley; settings: 250 ppm drug solution sprayed on test plant

Row | SMILES | Test G control value (Plasmopara viticola) | Test C control value (Alternaia brassicicola) | Test F control value (Phytophthora infestans) | Test A control value (Magnaporthe grisea) | Test H control value [1] | Test B control value (Botrytis cinerea) | Test E control value (Puccinia recondita) | Test D control value [2]
1 | CCOC(C)(c1cc(Cl)c(=O)n(C)c1-c1c(F)cc(OC)cc1F)C(C)C (stereo not shown) [compound 489] | L (50% or less control value) | H (more than 50% control value) | L (50% or less control value) | H (more than 50% control value) | H (more than 50% control value) | H (more than 50% control value) | H (more than 50% control value) | H (more than 50% control value)
2 | CCC(O)c1cc(Cl)c(=O)n(C)c1-c1c(F)cc(F)cc1F (stereo not shown) [compound 490] | H (more than 50% control value) | L (50% or less control value) | L (50% or less control value) | L (50% or less control value) | L (50% or less control value) | L (50% or less control value) | H (more than 50% control value) | L (50% or less control value)
3 | CCCc1ccc(=O)n(CC(F)F)c1-c1c(F)cccc1F [compound 491] | L (50% or less control value) | H (more than 50% control value) | L (50% or less control value) | L (50% or less control value) | L (50% or less control value) | H (more than 50% control value) | H (more than 50% control value) | H (more than 50% control value)
4 | CCCc1cc(Cl)c(=O)n(CC(F)F)c1-c1c(F)cccc1F [compound 492] | H (more than 50% control value) | H (more than 50% control value) | L (50% or less control value) | H (more than 50% control value) | H (more than 50% control value) | H (more than 50% control value) | H (more than 50% control value) | H (more than 50% control value)
5 | CCCc1cc(Br)c(=O)n(CC(F)F)c1-c1c(F)cccc1F [compound 493] | H (more than 50% control value) | H (more than 50% control value) | L (50% or less control value) | H (more than 50% control value) | H (more than 50% control value) | H (more than 50% control value) | H (more than 50% control value) | H (more than 50% control value)
6 | CCCc1cc(I)c(=O)n(CC(F)F)c1-c1c(F)cccc1F [compound 494] | H (more than 50% control value) | H (more than 50% control value) | L (50% or less control value) | H (more than 50% control value) | H (more than 50% control value) | H (more than 50% control value) | H (more than 50% control value) | H (more than 50% control value)
7 | CCC(=O)c1cc(Cl)c(=O)n(C)c1-c1c(F)cc(F)cc1F [compound 495] | L (50% or less control value) | H (more than 50% control value) | L (50% or less control value) | L (50% or less control value) | L (50% or less control value) | H (more than 50% control value) | H (more than 50% control value) | H (more than 50% control value)
8 | COC(c1cc(Cl)c(=O)n(C)c1-c1c(F)cc(F)cc1F)C(C)C (stereo not shown) [compound 496] | H (more than 50% control value) | H (more than 50% control value) | L (50% or less control value) | H (more than 50% control value) | H (more than 50% control value) | H (more than 50% control value) | H (more than 50% control value) | H (more than 50% control value)
9 | CCOC(c1cc(Cl)c(=O)n(C)c1-c1c(F)cc(F)cc1F)C(C)C (stereo not shown) [compound 497] | H (more than 50% control value) | H (more than 50% control value) | L (50% or less control value) | H (more than 50% control value) | H (more than 50% control value) | H (more than 50% control value) | H (more than 50% control value) | H (more than 50% control value)
10 | COc1cc(F)c(-c2c(C(OC)C(C)C)cc(Cl)c(=O)n2C)c(F)c1 (stereo not shown) [compound 498] | L (50% or less control value) | H (more than 50% control value) | L (50% or less control value) | H (more than 50% control value) | H (more than 50% control value) | H (more than 50% control value) | H (more than 50% control value) | L (50% or less control value)
11 | CCOC(c1cc(Cl)c(=O)n(C)c1-c1c(F)cc(OC)cc1F)C(C)C (stereo not shown) [compound 499] | H (more than 50% control value) | H (more than 50% control value) | L (50% or less control value) | H (more than 50% control value) | H (more than 50% control value) | H (more than 50% control value) | H (more than 50% control value) | H (more than 50% control value)
12 | CCn1c(-c2c(F)cc(OC)cc2F)c(C(C)(O)CC)cc(Br)c1=O (stereo not shown) [compound 500] | H (more than 50% control value) | H (more than 50% control value) | L (50% or less control value) | H (more than 50% control value) | H (more than 50% control value) | H (more than 50% control value) | H (more than 50% control value) | L (50% or less control value)
13 | CCn1c(-c2c(F)cc(F)cc2F)c(C(OC)C(C)C)cc(Br)c1=O (stereo not shown) [compound 501] | L (50% or less control value) | H (more than 50% control value) | L (50% or less control value) | H (more than 50% control value) | H (more than 50% control value) | H (more than 50% control value) | H (more than 50% control value) | H (more than 50% control value)
14 | CCC(OC)c1cc(Cl)c(=O)n(C)c1-c1c(F)cc(F)cc1F (stereo not shown) [compound 502] | H (more than 50% control value) | H (more than 50% control value) | L (50% or less control value) | H (more than 50% control value) | H (more than 50% control value) | H (more than 50% control value) | H (more than 50% control value) | H (more than 50% control value)
